The text below walks through data of article PMC11456916, “A screen for cell envelope stress uncovers an inhibitor of prolipoprotein diacylglyceryl transferase, Lgt, in Escherichiacoli” (iScience, 2024).

The subject of one experiment is E. coli ΔtolC. The experiment is described as follows: MIC assay, E. coli ΔtolC. The note with it: growth inhibition, in words. The format is cell-based. As for the experimental part: For MIC assays, cultures of bacteria were grown in LB broth. Overnight cultures were diluted (1:100) into fresh LB media and grown to the mid-log phase of growth (OD600 ∼0.5). Subcultures were then normalized to an OD600 of 0.1, and diluted (1:5000) into assay media. Assay plates were then incubated for 18 h at 37°C, then OD600 was measured using a Biotek Neo plate reader.

Experiment [1] deals with 356 CRISPRi constructs in E. coli ΔtolC-pore. The experiment is described as follows: CRISPRi collection fitness screen with sub-inhibitory compound. The format is cell-based. The note with it: sub-inhibitory (¼ MIC) concentration, LB agar, basal knockdown. The essentials:
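Mobile CRISPRi collection conjugated into the ΔtolC-pore strain and pinned on agar at 1536 density in technical quadruplicate with a sub-inhibitory MAC-0452936 concentration. No CRISPRi induction; only basal 5–10% knockdown.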

On to `COc1ccc(C(=O)O/N=C(\c2cccs2)C(C)(C)C)cc1` [MAC-0452936, (Z)-2-Pivaloylthiophene O-(4-methoxybenzoyl) oxime], for which the “activity against E. coli ΔtolC” value in the experiment with E. coli ΔtolC is recorded as “active”. Besides, in experiment [1], the “growth defect of the lgt CRISPRi mutant in the presence of compound” value was “considerable growth defect”.
